In data set [1] the test system is cress. On the set-up: method as in doi:10.1134/S0036023620090089. Particulars: cited from earlier work.
A further data set deals with CaCo-2. Also noted: method as in doi:10.1039/C4TX00079J. Particulars: CaCo-2 ref 39; cited from earlier work.
In the next data set the test system is NIH/3T3. Also noted: method as in doi:10.1039/C4TX00079J. Particulars: NIH/3T3 ref 39; cited from earlier work.
On the set-up of data set [2]: method as in PMID 28665154. Particulars: cited from earlier work.
Data set [3] concerns 3T3 cell (mouse embryonic fibroblasts). The note with it: cited from earlier work.
Data set [4] relates to cress. Also noted: method as in PMID 19052732. The note with it: cress seed, highest concentration of 1000 mg L^−1 ref 17; cited from earlier work.
A further data set deals with L929 fibroblasts. The data set is described as follows: Mammalian cell cytotoxicity screening, resazurin viability. The format is cell-based, mouse.
In another data set the test system is S. aureus ATCC 6538. The data set is described as follows: Antimicrobial activity, broth microdilution MIC/MBC. The format is cell-based, Staphylococcus aureus. Particulars: S. aureus ATCC 6538, 24 h at 37 °C, at least 90% growth inhibition; nd—not detected.
A further data set concerns E. coli ATCC 8739. The description is as above. The format is cell-based, Escherichia coli. Particulars: nd—not detected; for MIC (%): E. coli ATCC 8739, 24 h at 37 °C, at least 90% growth inhibition; for MBC (%): E. coli ATCC 8739.
The next data set has as its system C. albicans ATCC 10231. Described as above. The format is cell-based, Candida albicans. Particulars: C. albicans ATCC 10231, 24 h at 37 °C, at least 90% growth inhibition; nd—not detected.
Data set [5] deals with Lepidium sativum L. seeds. The note with it: 24 h incubation, mean(±SD), n = 3.
The test system of data set [6] is Lepidium sativum L. roots. The note with it: 24 h incubation, mean(±SD), n = 3.
In another data set the test system is E. coli. On the set-up: method as in doi:10.3139/113.110524. Particulars: E. coli ref 49; cited from earlier work.
The mark [7] stands for this setting: 0.01% (w/w) compound in the medium.
The mark [8] stands for this setting: 0.03% (w/w) compound in the medium.
[9] abbreviates: 0.05% (w/w) compound in the medium.
Where [10] appears, read: 0.10% (w/w) compound in the medium.
Setting [11] is: 0.30% (w/w) compound in the medium.
Setting [12] is: 0.50% (w/w) compound in the medium.
The mark [13] stands for this setting: 1.00% (w/w) compound in the medium.
The mark [14] stands for this setting: 2.00% (w/w) compound in the medium.
Where [15] appears, read: 3.00% (w/w) compound in the medium.
Where [16] appears, read: 4.00% (w/w) compound in the medium.
Setting [17] is: 5.00% (w/w) compound in the medium.

Values joined by “and” are separate entries in the source; they are usually repeats but may differ in a detail not shown here. Equal values may be shown once. Read-outs that look alike come from different tables or passages of the source.

Turning to `O=C(O)c1ccccc1O.OCCN(CCO)CCO` [TEA salicylate], the “effect on root and shoot length” value in the data set with cress [1] (0.03 mg L^−1 ref 12) is on record as “significant inhibition effect”.

Turning to `O=C(O)C=Cc1ccccc1.OCCN(CCO)CCO` [TEA salt of cinnamic acid], the “effect on cress seed germination and root growth” value in the data set on cress [1] (0.003 and 0.03 mg L^−1 ref 12) was “most visible stimulation”.

As to `CCCCn1cc[n+](C)c1` [[BMIM][(L)-Lac]], the values for the IC50 with CaCo-2 and with NIH/3T3 were 19.2 mM and 33.6 mM, respectively.

For `CCCCn1cc[n+](C)c1.C[C@H](N)C(=O)[O-]` [[BMIM][Ala]], the values for the IC50 in the data set on CaCo-2 and in the data set with NIH/3T3 were 19.3 mM and 30.2 mM, respectively.

For the molecule `CCCCn1cc[n+](C)c1` [[BMIM][BF4]], the figures for the IC50 in the data set on CaCo-2 and in the data set with NIH/3T3 were 11.2 mM and 11.3 mM, respectively.

Regarding `CCCCn1cc[n+](C)c1` [[BMIM][PF6]], in the data set with CaCo-2, the IC50 was 11.5 mM.

Turning to `C[N+](C)(C)CCO.N[C@@H](CCC(=O)O)C(=O)[O-]` [[Cho][Glu]], in data set [2], the IC50 is 0.43 % (v/v).

For `C[N+](C)(C)CCO.NCC(=O)[O-]` [[Cho][Gly]], in [3], the Cell viability entry is “over 90%”.

On to `NCC(=O)O` [[Cho][Gly]], for which, in data set [3] (3T3 cells, 48 h, printed also as (1%) ref 34), the IC50 was ~55 mM.

With `C[N+](C)(C)CCO.NC(Cc1ccccc1)C(=O)[O-]` (centres unmarked) [[Cho][Phe]], the IC50 in data set [2] was 0.42 % (v/v).

As to `CCn1cc[n+](C)c1.[Cl-]` [[EMIM][Cl]], in the data set on cress [4], the decrease in germination is on record as 85%.

On to `CCCCCCn1cc[n+](C)c1.[Cl-]` [[HMIM][Cl]], for which the decrease in germination in the data set with cress [4] is on record as 100%.

`O=C(O)[C@@H]1CCCN1.OCCN(CCO)CCO` [[TEA][Pro]]: the ED20 was 0.32±0.05% in the data set on L929 fibroblasts (24h exposure) and 0.35±0.04% in the data set with L929 fibroblasts (48h exposure). Further, the ED50 amounted to 0.56±0.04% in the data set on L929 fibroblasts (24h exposure) and 0.64±0.04% in the data set on L929 fibroblasts (48h exposure). For the same molecule, the ED80 with L929 fibroblasts (24h exposure) came out at 0.86±0.14%; in the data set with L929 fibroblasts (48h exposure), 1.00±0.13%. In addition, the “MIC (%)” value in the data set with S. aureus ATCC 6538, against E. coli ATCC 8739 and against C. albicans ATCC 10231 was 7.50% throughout. Further, in the data set on E. coli ATCC 8739, the “MBC (%)” value was found to be 7.50%. Further, the “Inhibition of the Lepidium sativum seeds germination (ISG, %)” value (shortened to “Inhibition … (ISG, %)”) in [5] (setting [7]) was 3.7(±0.5) %; in data set [5] (setting [8]) it was 6.5(±0.5) %; in [5] (setting [9]), 9.3(±0.5) %; in data set [5] (setting [10]), 16.7(±0.8) %; in data set [5] (setting [11]) it was 18.5(±0.5) %; in data set [5] (setting [12]) it was 20.4(±1.3) %. Also, the “Inhibition … (ISG, %)” value was 25.9(±1.3) % in [5] (setting [13]); 29.6(±0.9) % in data set [5] (setting [14]); 40.7(±0.5) % in [5] (setting [15]); 51.9(±0.5) % in [5] (setting [16]); 79.6(±0.5) % in [5] (setting [17]). Further, the “Inhibition of the root growth in pregerminated Lepidium sativum seeds (IRG, %)” value (from here on “Inhibition of the root growth … (IRG, %)”) in data set [6] (setting [7]) was 0.0(±0.0) %; in data set [6] (setting [8]) it was 20.7(±2.1) %; in data set [6] (setting [9]), 27.3(±2.2) %; in data set [6] (setting [10]) it was 39.5(±1.9) %; in data set [6] (setting [11]) it was 57.5(±1.5) %; in data set [6] (setting [12]), 67.7(±1.1) %. In addition, the “Inhibition of the root growth … (IRG, %)” value in data set [6] (setting [13]) is 74.5(±1.2) %; in data set [6] (setting [14]), 83.0(±0.7) %; in data set [6] (setting [15]) it was 88.2(±0.6) %; in [6] (setting [16]) it was 90.1(±0.8) %; in [6] (setting [17]) it was 92.0(±0.7) %.

Molecule `NC(CO)C(=O)O.OCCN(CCO)CCO` [[TEA][Ser]] displayed an ED20 with L929 fibroblasts (24h exposure) of 0.26±0.03%. In the data set on L929 fibroblasts (24h exposure), this molecule registered an ED50 of 0.55±0.04%. In the data set with L929 fibroblasts (24h exposure), this molecule gave an ED80 of 0.98±0.11%. In addition, the “MIC (%)” value with S. aureus ATCC 6538 turned out to be 7.50%; in the data set on E. coli ATCC 8739, 7.50%; against C. albicans ATCC 10231 it was 3.75%. Moreover, the “MBC (%)” value against E. coli ATCC 8739 is 7.50%. Besides, the “Inhibition … (ISG, %)” value was 0.0(±0.0) % in [5] (setting [7]); 0.0(±0.0) % in data set [5] (setting [8]); 0.0(±0.0) % in data set [5] (setting [9]); 2.8(±1.7) % in data set [5] (setting [10]); 5.7(±1.3) % in data set [5] (setting [11]); 6.6(±0.9) % in data set [5] (setting [12]). Also, the “Inhibition … (ISG, %)” value in [5] (setting [13]) is on record as 7.5(±1.7) %; in [5] (setting [14]), 17.0(±0.5) %; in data set [5] (setting [16]), 34.0(±2.6) %. In addition, the “Inhibition of the root growth … (IRG, %)” value was 0.0(±0.0) % and 0% in data set [6] (setting [7]); 0.0(±0.0) % and 0% in data set [6] (setting [8]); 0.0(±0.0) % and 0% in data set [6] (setting [9]); 14.6% in data set [6] (setting [11]); 25.3% in data set [6] (setting [12]); 70.2(±0.7) % in data set [6] (setting [13]). For the same molecule, the “Inhibition of the root growth … (IRG, %)” value in data set [6] (setting [14]) is 77.8(±0.6) %; in data set [6] (setting [15]), 79.5(±0.6) %; in data set [6] (setting [16]) it was 81.3(±0.5) %; in data set [6] (setting [17]), 91.2(±0.4) %.

As for benzalkonium chloride, in the data set on E. coli, the MIC was 15 µg/mL.

The values are drawn from article PMC12029836, “Phytotoxicity, Cytotoxicity, and Antimicrobial Activity of Triethanolammonium Amino Acids Salts” (Molecules, 2025).
